Measurements taken from US7915238B2, “Immunomodulatory compounds and methods of use thereof” (Eisai R & D Management Co., Ltd., priority 1999, dated 2011).
Several values for one entry are separate records, joined by “and”; a condition that tells them apart may be missing. Identical values can stand only once.

Experiments:
normal mouse splenocytes = assay: Cytokine release from murine splenocytes; format: cell-based, C57BL6 mice; settings: 24 hours culture with test compound
Experimental: The ability of compounds to stimulate cytokine release from splenocytes can be assessed in a mouse model. Spleen cells harvested from C57BL6 mice are cultured for 24 hours in RPMI 1640 cell culture medium containing 5% FBS, 1 mM sodium pyruvate, 2 mM L-glutamine, 100 U/ml penicillin/streptomycin and 50 μM beta-mercaptoethanol, various concentrations of test compound for 20-24 hours, after which the cell culture supernatant is tested for the presence of cytokines.
Spleen cells harvested from mice were cultured for 24 house with test compound and the supernatant was tested for release of cytokines.

THP-1 cells = assay: TNF-alpha promoter secreted alkaline phosphatase (TNF-PLAP) reporter in THP-1 cells; format: cell-based, human; settings: absence and presence of 10% serum; FIG. 3
Experimental: Similar results can be obtained when compounds of the invention are tested in a cell-culture model. In this assay, compounds of the invention are tested for their ability to stimulate secretion of alkaline phosphatase from THP-1 cells that have been transfected with the gene for secreted alkaline phosphatase under the control of the TNF-alpha promoter, as described in detail in Goto et al., Molecular Pharmacology 49; 860-873 (1996). In this assay, however, the effects of removing serum^1—a condition that may more-likely mimic a subcutaneous environment—can be evaluated. As shown in FIG. 2 and described in Table 1, results from these assays indicate that compounds of the invention stimulate induction of genes under the control of the TNF-alpha promoter when added to cells in the absence as well as the presence of serum. ^1 This is important to determine if serum components such as lipopolysaccharide binding protein are necessary for drug activity.

[1] = system: mouse macrophage line RAW 264.7; assay: Tolerization to TLR family ligands, TNF-alpha release; format: cell-based; settings: pretreated 24 hours at 0.1 μg/mL
Experimental: Cells of the mouse macrophage line RAW 264.7 were plated in RPMI 1640 complete culture medium (10% fetal bovine serum, 1 mM sodium pyruvate, 2 mM L-glutamine, 100 U/mL penicillin/streptomycin and 50 μM β-mercaptoethanol). Cells were treated for 24 hours with the TLR4 ligand ER-803022 at 0.1 μg/mL by addition of a concentrated stock solution. Negative control cells were treated with an equivalent volume of PBS. After 24 hours, cells were washed twice in RPMI 1640 complete medium and incubated in medium alone for 3 hours. Cultures were then restimulated with the following synthetic TLR ligands: lipopeptide (S-lipo, a ligand for TLR2) at 0.1 μg/mL, ER-803022 at 0.1 μg/mL, a mouse CpG oligonucleotide of the sequence […] (a ligand of murine TLR9) at 0.5 μg/mL, or PBS. Supernatants were taken at 3 and 4 hours and cytokine levels were determined by ELISA.

EGFRvIII peptide = assay: EGFRvIII peptide-specific antibody titers after immunization (ELISA); format: in vivo, C57/BL6J mice; settings: s.c. with 25 μg peptide-KLH, 804057 3 μg, GM-CSF 5 μg; for Antibody titers to EGFRvIII peptide, IgG1, individual animals / Antibody titers to EGFRvIII peptide, IgG2a, individual animals: titer = last serum dilution 0.25 OD above background
Excerpt: To determine whether an adjuvant can enhance the effect of an oncology antigen (i.e., an antigen that can be used to vaccinate a subject individual against a cancer), C57/BL6J mice were immunized subcutaneously with a tumor-associated peptide, LEEKKGNYVVTDHC (SEQ ID NO:2) (derived from a mutant form of EGFR, […]) conjugated to the protein carrier keyhole limpet hemocyanin (KLH), with or without Compound 804057 or murine GM-CSF, a cytokine used in cancer vaccine trials to boost immune response. Compound 804057 was dosed at 3 μg, GM-CSF at 5 μg and the peptide-KLH conjugate at 25 μg per dose. Mice were immunized three times at intervals of three weeks. Serum was prepared from mice two weeks after each immunization and tested for […] peptide-specific antibodies using ELISA on plates coated with EGFRvIII peptide conjugated to bovine serum albumin. The results in Table 3 are presented as titers from individual animals. The titer is defined as the last serum dilution at which a signal at 0.25 OD units above background was observed.

MUC1 IL-10−/− mice = assay: MUC-1 vaccine with adjuvant in mice that develop IBD and colon adenocarcinoma; format: in vivo, mouse
Experimental: To test the effects of a MUC-1 vaccine with Compound 804057 adjuvant for treating inflammatory bowel disease (IBD) and subsequent development of colon adenocarcinoma, an engineered mouse strain that lacks the IL-10 gene and expresses transgenic human MUC1 was used. Such mice spontaneously develop intestinal inflammation resembling IBD followed by colon adenocarcinoma. […] 4, 2006.
In these experiments, mice were immunized intranasally with […] of Tn MUC100mer ([…])×5, SEQ ID NO:1) and […] of Compound 804057. Animals were vaccinated at about 4.5 weeks and boosted at about 6.5 weeks and 9 weeks.

[2] = system: B16F10 murine melanoma cells; assay: Survival of melanoma-bearing mice, intratumoral GM-CSF cells with compound; format: in vivo, B6 mice; settings: about 3-10 μg, combined with GM-CSF cells, vs untreated or GM-CSF cells alone, FIG. 8
Experimental: The effect of Compound 804057 on treatment of B6 mice that were engrafted subcutaneously with 1×10^6 syngeneic B16F10 murine melanoma cells was examined. When tumors became palpable, the mice were injected intratumorally with GM-CSF cells alone, or in combination with Compound 804057 (about 3-10 μg). Survival of the animals was monitored.

[3] = system: B16F10 murine melanoma cells; assay: Survival of melanoma-bearing mice, i.p. compound with s.c. B16 GM-CSF cell vaccine; format: in vivo, B6 mice (C57BL6 mice); settings: i.p. Compound 804057 combined with s.c. B16 GM-CSF cells, three days after tumor inoculation; FIG. 7
Excerpt: To determine the effect of Compound 804057 when administered intraperitoneally with a cancer vaccine, e.g., granulocyte-macrophage colony stimulating factor (GM-CSF) secreting tumor cells, a mouse model using melanoma cells was used. Compound 804057 is a TLR-4 (Toll-like receptor-4) agonist. B6 mice (C57BL6 mice) were engrafted subcutaneously with […] murine melanoma cells. Three days after tumor cell inoculation, the mice were either (1) vaccinated subcutaneously (s.c.) with 1×10^6 B16F10 tumor cells that were genetically modified to stably express and secrete murine GM-CSF (B16-GM-CSF cells); (2) vaccinated intraperitoneally (i.p.) with Compound 804057; or (3) were treated with a combination of s.c. GM-CSF cell vaccination and i.p. Compound 804057 (the GM-CSF cell vaccination and Compound 804057 vaccination were administered at separate sites in the mice). In these experiments, the GM-CSF cells were inactivated by gamma-irradiation prior to inoculation. Survival of the animals was monitored.

Adherent PBMC = assay: Cytokine production by stimulated adherent human PBMC; format: cell-based; settings: 50 nM
Human Whole Blood = assay: Cytokine release in human whole blood (ELISA); format: cell-based
Experimental: The most readily available human system to test compound activity on monocytes/macrophages is in whole blood. Various concentrations of compounds of the invention were added as 10× stocks in 50 μl of Ca^++, Mg^++-free Hank's balanced salt solution (HBSS) followed by 50 μl of HBSS into 400 μl of heparinized whole blood obtained from normal volunteers (18-51 years old; 110-230 lb.) into the wells of plastic assay plates, for a total volume of 500 μl/well (final concentration of whole blood was 80%). After a 3-hour incubation with gentle shaking at 37° C. in a 5% CO2 atmosphere, the assay plates were centrifuged at 1000×g for 10 min. at 4° C. and plasma was drawn off and frozen at −80° C. Plasma samples were analyzed for TNF-alpha, IL-10, and IL-12 by ELISA (Genzyme Corp., Cambridge, Mass.). Each assay point was tested in triplicate.
This stimulatory activity can be compared to that of 10 ng/ml endotoxin (or LPS) present in similar incubations in the same assay.

Whole blood = assay: IL-12p70 production in whole blood, 24 hrs (Table 2); format: cell-based, human; settings: 50 nM
Nonadherent PBMC = assay: Cytokine production by stimulated nonadherent human PBMC; format: cell-based; settings: 50 nM, 24 hrs

## CCCCCC/C=C\CCCC(=O)O[C@H](CCCCCCC)CCOCC(COP(=O)([O-])OCCNC(=O)NCCOP(=O)([O-])OCC(COCC[C@@H](CCCCCCC)OC(=O)CCC/C=C\CCCCCC)NC(=O)CC(=O)CCCCCCCCCCC)NC(=O)CC(=O)CCCCCCCCCCC.[Na+].[Na+] (stereo partly drawn) [ER 111232]
Normal mouse splenocytes
  IL-10 release from splenocytes: stimulated
  interferon-gamma release from splenocytes: stimulated
THP-1 cells
  stimulation of alkaline phosphatase expression from TNF promoter reporter (TNF-PLAP): stimulation of alkaline phosphatase expression

## CCCCCCCCCCCC(=O)CC(=O)NC(COCC[C@@H](CCCCCCC)OC(=O)CCCCCCCCCCC)COP(=O)([O-])OCCNC(=O)NCCOP(=O)([O-])OCC(COCC[C@@H](CCCCCCC)OC(=O)CCCCCCCCCCC)NC(=O)CC(=O)CCCCCCCCCCC.[Na+].[Na+] (stereo partly drawn) [ER 112066]
Normal mouse splenocytes
  IL-10 release from splenocytes: stimulation of IL-10 release
  interferon-gamma release from splenocytes: stimulation of interferon-gamma release
THP-1 cells
  stimulation of alkaline phosphatase expression from TNF promoter reporter (TNF-PLAP): stimulation of alkaline phosphatase expression

## CCCCCCCCCCCCCC(=O)N[C@H](COCC[C@@H](CCCCCCC)OC(=O)CCCCCCCCCCC)COP(=O)([O-])OCCNC(=O)NCCOP(=O)([O-])OC[C@@H](COCC[C@@H](CCCCCCC)OC(=O)CCCCCCCCCCC)NC(=O)CCCCCCCCCCCCC.[Na+].[Na+] [ER 803022]
[1]; restimulated with CpG 0.5 μg/mL
  TNF-alpha release in response to CpG oligonucleotide, a TLR9 ligand: diminished release of TNF-alpha
[1]; restimulated with ER-803022 0.1 μg/mL, vs not pretreated
  TNF-alpha release upon subsequent exposure to ER803022 (TLR4 ligand): released less TNF-alpha
[1]; restimulated with S-lipo 0.1 μg/mL
  TNF-alpha release in response to TLR2 ligand S-lipoprotein: diminished release of TNF-alpha

## CCCCCCCCCCCC(=O)CC(=O)N[C@H](COCC[C@@H](CCCCCCC)OC(=O)CCCCCCCCCCC)COP(=O)([O-])OCCNC(=O)NCCOP(=O)([O-])OC[C@@H](COCC[C@@H](CCCCCCC)OC(=O)CCCCCCCCCCC)NC(=O)CC(=O)CCCCCCCCCCC.[Na+].[Na+] [ER 804057]
EGFRvIII peptide
  Geometric mean titer, IgG1: 20182
  Antibody titers to EGFRvIII peptide, IgG1, individual animals: 24000 (6×) and 48000 and 3000
  Antibody titers to EGFRvIII peptide, IgG2a, individual animals: 6000 (2×) and 12000 (3×) and 24000 and 48000 and 1500
MUC1 IL-10−/− mice; added to the MUC-1 vaccine
  appearance of histologically detected tumors: suppresses the appearance of histologically detected tumors
  progression to rectal prolapse associated with IBD: can slow the progression to rectal prolapse associated with IBD
MUC1 IL-10−/− mice; age of treated mice, Table 5
  Age (weeks): 12.5-18 weeks
MUC1 IL-10−/− mice; intranasal with MUC-1 vaccine (Tn MUC100mer)
  development of colon cancer: did not develop colon cancer
MUC1 IL-10−/− mice; intranasal with MUC-1 vaccine (Tn MUC100mer), FIG. 9
  onset of IBD: delayed onset of IBD or did not develop IBD
MUC1 IL-10−/− mice; intranasal with MUC-1 vaccine (Tn MUC100mer), FIG. 10
  survival: improved survival
MUC1 IL-10−/− mice; mice with tumors / mice treated
  Colon tumors: 3/3
[2]
  survival of tumor-bearing mice: increased survival
[3]
  therapeutic efficacy (survival) of tumor-bearing mice: enhanced the therapeutic efficacy of the GM-CSF cells
Adherent PBMC; 4 hrs
  Cytokine Production IL-1α: 8 pg/mL
  Cytokine Production IL-1β: 55 pg/mL
  Cytokine Production IL-6: 551 pg/mL
  Cytokine Production Interferon-α: 345 pg/mL
  Cytokine Production TNF-α: 3627 pg/mL
Adherent PBMC; 24 hrs
  Cytokine Production IL-10: 175 pg/mL
Adherent PBMC; 48 hrs
  Cytokine Production Interferon-α: 175 pg/mL
Human Whole Blood; FIG. 2
  IL-10 release from blood-borne cells: stimulate blood-borne cells to release IL-10
  IL-12 release from blood-borne cells: stimulate blood-borne cells to release IL-12
Human Whole Blood; whole blood, vs. % of LPS at 10 ng/ml, read-out: WB ED50 vs LPS@ 10 ng/ml
  EC50: 8 nM
Whole blood
  Cytokine Production IL-12p70: 1332 pg/mL
Nonadherent PBMC
  Cytokine Production GM-CSF: 353 pg/mL
  Cytokine Production IL-1α: 108 pg/mL
  Cytokine Production IL-1β: 431 pg/mL
  Cytokine Production Interferon-γ: 331 pg/mL

## CCCCCC/C=C\CCCC(=O)O[C@H](CCCCCCC)CCOCC(COP(=O)([O-])OCCNC(=O)CCCCCCCCC(=O)NCCOP(=O)([O-])OCC(COCC[C@@H](CCCCCCC)OC(=O)CCC/C=C\CCCCCC)NC(=O)CC(=O)CCCCCCCCCCC)NC(=O)CC(=O)CCCCCCCCCCC.[Na+].[Na+] (stereo partly drawn) [ER 111231]
Normal mouse splenocytes
  IL-10 release from splenocytes: stimulated
  interferon-gamma release from splenocytes: stimulated

B1: GM-CSF: murine GM-CSF, a cytokine used in cancer vaccine trials to boost immune response (protein, UniProt P01587 18-141, looked up)
Granulocyte-macrophage …: APTRSPITVTRPWKHVEAIKEALNLLDDMPVTLNEEVEVVSNEFSFKKLTCVQTRLKIFEQGLRGNFTKLKGALNMTASYYQTYCPPTPETDCETQVTTYADFIDSLKTFLTDIPFECKKPGQK
EGFRvIII peptide
  Geometric mean titer, IgG1: 24000
  Geometric mean titer, IgG2a: 3568
  Antibody titers to EGFRvIII peptide, IgG1, individual animals: 12000 (3×) and 24000 (2×) and 48000 (3×)
  Antibody titers to EGFRvIII peptide, IgG2a, individual animals: 3000 (2×) and 6000 (3×) and 24000 and 750 (2×)
